Test [1] addresses T1, F(36M)4-hIn-m3 fusion protein in HT1080 cells (Homo sapiens, UniProt P01308+P62942, F37M/H34D/K53R/L86R/R55K).
T1 construct: fusion of F(36M) domains to insulin results in a suppression of its secretion; expressed in transfected cells; host or cells: HT1080 cells, transient transfection
Nature of the test: Regulated insulin secretion from transiently transfected HT1080 cells (C-peptide ELISA). To be noted: increasing concentrations of ligand, 3 hours, FIG. 8. It counts as cell-based. The procedure:
A vector driving expression of this F(36M)-insulin fusion protein (F(36M)4-hIn-m3) was transiently transfected into HT1080 cells. For comparison, vectors driving the expression of insulin protein alone, with (hIn-m3) or without (hIn-wt) the three mutations were also transfected. Following overnight incubation of cells in the absence of ligand, the medium was washed away and fresh medium added, without or with increasing concentrations of the monomeric ligand, AP21998. Three hours later, the amount of insulin secreted into the medium was determined by ELISA using an assay that recognizes an epitope within the C-peptide (ALPCO).
For orientation: In an ELISA, binding on a coated surface is turned into a signal by an enzyme label.

For test [2], the target named is T2, F(36M)-hGH fusion protein in HT88 cells (stably transfected HT1080) (Homo sapiens, UniProt P01241+P62942, F37M).
T2 construct: 4 copies of the F(36M) domain; expressed in transfected cells; host or cells: HT1080 human fibrosarcoma cells, stably transfected pool HT88
The test can be described thus: Ligand-dependent hGH secretion from HT88 cells (radioimmunoassay). It counts as cell-based. To be noted: FIG. 5A. How it is done: A vector driving the expression of this fusion protein, under control of the strong constitutive enhancer from CMV, was transiently transfected into HT1080 cells, a human fibrosarcoma cell line. Following overnight incubation of cells in the absence of ligand, the medium was washed away and fresh medium added, with or without ligand. Two hours later, the amount of hGH secreted into the medium was determined by radioimmunoassay. […] In contrast, in the presence of ligand, the amount of hGH secreted was several hundred-fold greater.
Pools of clones stably transfected with the F(36M)-hGH fusion protein (HT88 pool) were analyzed as described for the transiently transfected cells. […] To determine the constitutive rate of hGH secretion, the amount of hGH secreted in the presence of ligand was measured from cells that had already been exposed to ligand for 15 hours. As shown in lane 3, the constitutive rate of secretion from the HT88 cell line was very similar to the rate of secretion from the HT89 cell line which had been stably transfected with the wild type hGH protein (lane 4). Thus, in the presence of ligand the F(36M) domains have no detectable “retention” activity. […] This steady state level of stored F(36M)-hGH fusion protein can persist for months in the cell line with no apparent toxic effect. […]

In the next test the target is F36M-FKBP (Homo sapiens, UniProt P62942, F37M). The test can be described thus: Binding of bumped FKBP ligands to F36M-FKBP. The source says:
(§1) AP21998 and AP22542 are ligands of FKBP that have particular utility for CAD applications, because they bind with high affinity to F36M-FKBP but poorly to the wild-type protein, and are thus anticipated to lead to minimal interactions with the endogenous proteins during in vivo applications. The design and assay of such “bumped” ligands that target a hole created by truncating FKBP residue Phe36 have been described (Clackson et al., Proc. Natl. Acad. Sci. USA 95:10437-10442, 1998).

The next test addresses wild-type FKBP (Homo sapiens, UniProt P62942). The test can be described thus: Binding of bumped FKBP ligands to wild-type FKBP.
Text: as §1

The target of test [3] is T3, F(36M)4-hIn-m3 fusion protein in implanted HT101-10p cells (Homo sapiens, UniProt P01308+P62942, F37M/H34D/K53R/L86R/R55K).
T3 construct: fusion of F(36M) domains to insulin results in a suppression of its secretion; expressed in transfected cells; host or cells: HT101-10p cells (HT1080 stably transfected), implanted intramuscularly into male nu/nu mice
Nature of the test: Regulated insulin secretion in vivo: serum insulin and glucose in STZ-treated mice implanted with HT101-10p cells. Set-up: species or system male nu/nu mice. The procedure: To test whether this system could be used to regulate secretion of insulin in vivo and effect changes in serum glucose levels, 2×10e7 HT101-10p cells were implanted intramuscularly into male nu/nu mice. HT101-10p cells were generated by stably transfecting HT1080 cells with a vector that drives expression of the F(36M)4-hIn-m3 fusion protein. Mice were made hyperglycemic by treatment 2 days earlier with 300 mg/kg streptozotocin (STZ). […] Approximately 1 hr after cells are implanted, animal received vehicle or the indicated dose of intravenous AP22542 (an analog of AP21998). Two hours later, serum samples were collected and assayed for insulin (Ultrasensitive human insulin-specific RIA, Linco) and glucose (Sigma) concentrations. […] In contrast, in animals treated with 10 mg/kg AP22542, serum insulin levels increase to ˜200 pM and serum glucose levels decline to ˜75 mg/dl.
To examine the kinetics of this ligand-induced reduction in serum glucose, STZ-treated mice implanted with 2×10e7 HT101-10p cells were administered a single dose of 30 mg/kg AP22542 intravenously. Serum glucose levels were measured at various times between 5 minutes and 10 hours later. […] This effect is transient as serum glucose levels rise to 350 mg/dl within 5 hours and return to baseline between 6 and 10 hours later. Since insulin secretion is dependent on the presence of the drug, administration of lower doses of AP22542 or of a ligand with a shorter half life should result in an even more transient production of secreted protein and resulting physiological effect. Conversely, administration of higher doses of AP22542 or of a ligand with a longer half life should result in a more prolonged production of secreted protein.

Setting [4] is: 1 mg/kg intravenous, 2 hours after dose, hyperglycemic mice.

T3 sequence (P62942+P01308 fused P62942:F37M/P01308:H34D/P01308:K53R/P01308:R55K/P01308:L86R): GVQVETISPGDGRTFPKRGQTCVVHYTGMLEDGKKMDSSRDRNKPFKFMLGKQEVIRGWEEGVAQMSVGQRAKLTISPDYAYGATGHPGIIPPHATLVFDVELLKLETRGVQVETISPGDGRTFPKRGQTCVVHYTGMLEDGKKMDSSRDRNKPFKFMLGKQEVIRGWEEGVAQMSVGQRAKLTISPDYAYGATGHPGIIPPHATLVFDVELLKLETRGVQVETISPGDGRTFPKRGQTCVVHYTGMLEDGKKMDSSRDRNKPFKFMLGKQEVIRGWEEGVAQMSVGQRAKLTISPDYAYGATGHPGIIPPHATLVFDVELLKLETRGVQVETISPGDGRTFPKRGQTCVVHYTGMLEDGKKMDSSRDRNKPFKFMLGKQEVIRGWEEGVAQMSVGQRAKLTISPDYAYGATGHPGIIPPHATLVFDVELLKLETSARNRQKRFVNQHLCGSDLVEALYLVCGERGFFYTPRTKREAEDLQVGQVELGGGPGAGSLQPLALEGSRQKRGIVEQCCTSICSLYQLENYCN
wild-type FKBP, sequence (P62942 whole entry): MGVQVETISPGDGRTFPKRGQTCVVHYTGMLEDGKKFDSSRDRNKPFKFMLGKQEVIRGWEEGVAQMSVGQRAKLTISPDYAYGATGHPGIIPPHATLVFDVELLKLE
F36M-FKBP, sequence (P62942 whole entry F37M, the tested form may be a part): as the sequence (P62942 whole entry) above, with F37M counted along it
T2 sequence (P62942+P01241 fused P62942:F37M): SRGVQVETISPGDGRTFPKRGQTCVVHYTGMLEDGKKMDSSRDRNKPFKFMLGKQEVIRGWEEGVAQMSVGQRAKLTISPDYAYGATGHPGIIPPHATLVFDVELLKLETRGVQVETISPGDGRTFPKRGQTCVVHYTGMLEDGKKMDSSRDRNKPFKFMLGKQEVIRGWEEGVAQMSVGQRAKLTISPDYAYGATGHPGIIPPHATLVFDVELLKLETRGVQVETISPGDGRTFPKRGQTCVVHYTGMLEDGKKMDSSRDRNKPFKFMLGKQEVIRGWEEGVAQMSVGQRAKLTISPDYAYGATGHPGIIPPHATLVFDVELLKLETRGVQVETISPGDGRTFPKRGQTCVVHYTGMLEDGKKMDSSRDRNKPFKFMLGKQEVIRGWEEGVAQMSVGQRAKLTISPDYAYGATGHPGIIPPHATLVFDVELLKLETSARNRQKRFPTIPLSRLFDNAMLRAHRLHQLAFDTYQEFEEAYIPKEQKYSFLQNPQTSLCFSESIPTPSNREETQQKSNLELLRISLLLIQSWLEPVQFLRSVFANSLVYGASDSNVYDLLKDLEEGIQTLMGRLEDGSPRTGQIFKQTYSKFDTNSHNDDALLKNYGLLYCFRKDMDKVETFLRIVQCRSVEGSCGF
T1 sequence (P62942+P01308 fused P62942:F37M/P01308:H34D/P01308:K53R/P01308:R55K/P01308:L86R): as the sequence (P62942+P01308 fused P62942:F37M/P01308:H34D/P01308:K53R/P01308:R55K/P01308:L86R) above

For the compound `CC[C@H](C(=O)N1CCCCC1C(=O)O[C@H](CCc1ccc(OC)c(OC)c1)c1cccc(OCC(=O)NCCCN(C)C)c1)c1cc(OC)c(OC)c(OC)c1` (stereo partly drawn) [AP21998], the “insulin secretion into medium” value in test [1] is “secretion is induced in the presence of monomer in a dose-dependent manner”. The “concentration giving peak level of hGH secretion” value in test [2] lay in the range of 2 to 3 µM. Further, the EC50 in test [2] (read-out: half-maximal secretion of hGH) came to 0.6 µM. In addition, the “binding to F36M-FKBP” value at F36M-FKBP is given as “high affinity”. Further, on wild-type FKBP, the “binding to the wild-type protein” value is reported as “poorly”.
Take `CC[C@H](C(=O)N1CCCC[C@H]1C(=O)O[C@H](CCc1ccc(OC)c(OC)c1)c1cccnc1)c1cc(OC)c(OC)c(OC)c1` [AP22542, 1-[2(S)-(3,4,5-trimethoxyphenyl)-butyryl]-piperdine-2(S)-carboxylic acid, 3-(3,4-Dimethoxyphenyl)-1-pyridin-3-yl-propan-1(R)-ol ester]: the serum glucose entry is on record as “no change in serum glucose” in test [3] (setting [4]) and “significant reduction in serum glucose” in test [3] (30 mg/kg intravenous single dose, within 30 minutes). Besides, the serum insulin levels result in test [3] (setting [4]) is listed as “fails to increase serum insulin levels above the lower limit of detection”; in test [3] (10 mg/kg intravenous, 2 hours after dose) it was roughly 200 pM. The serum glucose levels in test [3] (10 mg/kg intravenous, 2 hours after dose, STZ baseline ~350 mg/dl) is roughly 75 mg/dL; in test [3] (30 mg/kg intravenous single dose, 5 and 15 minutes after administration) it was “indistinguishable from animals treated with vehicle”; in test [3] (30 mg/kg intravenous single dose, by two hours, initial levels nearly 500 mg/dl), 50 mg/dL; in test [3] (30 mg/kg intravenous single dose, within 5 hours), 350 mg/dL. Moreover, the “binding to F36M-FKBP” value at F36M-FKBP is on record as “high affinity”. In addition, at wild-type FKBP, the “binding to the wild-type protein” value was “poorly”.

For the origin of these results see patent US6566073B1, “Materials and methods involving conditional retention domains” (Ariad Gene Therapeutics, Inc., priority 1998, dated 2003).
